Test results from PubChem BioAssay (NCI).
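GI50 is the concentration that inhibits growth by half. TGI: total growth inhibition.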

How the values were obtained:
Experiment in all cases: growth of human tumour cells (NCI), 384-well format
HL-60(TB) leukemia = tested on: HL-60(TB) leukemia
MCF7 breast = tested on: MCF7 breast
MDA-MB-468 breast = tested on: MDA-MB-468 breast
NCI-H322M lung = tested on: NCI-H322M lung
NCI-H460 NSCLC = tested on: NCI-H460 NSCLC
OVCAR-5 ovarian = tested on: OVCAR-5 ovarian
SF-268 CNS = tested on: SF-268 CNS
SNB-19 CNS = tested on: SNB-19 CNS
SNB-75 CNS = tested on: SNB-75 CNS
SR leukemia = tested on: SR leukemia
T-47D breast = tested on: T-47D breast
U251 glioblastoma = tested on: U251 glioblastoma
UO-31 renal = tested on: UO-31 renal

| SMILES | GI50 (HL-60(TB) leukemia) | TGI (HL-60(TB) leukemia) | GI50 (MCF7 breast) | TGI (MCF7 breast) | GI50 (MDA-MB-468 breast) | TGI (MDA-MB-468 breast) | GI50 (NCI-H322M lung) | TGI (NCI-H322M lung) | GI50 (NCI-H460 NSCLC) | TGI (NCI-H460 NSCLC) | GI50 (OVCAR-5 ovarian) | TGI (OVCAR-5 ovarian) | GI50 (SF-268 CNS) | TGI (SF-268 CNS) | GI50 (SNB-19 CNS) | TGI (SNB-19 CNS) | GI50 (SNB-75 CNS) | TGI (SNB-75 CNS) | GI50 (SR leukemia) | TGI (SR leukemia) | also measured |
| --- | --- | --- | --- | --- | --- | --- | --- | --- | --- | --- | --- | --- | --- | --- | --- | --- | --- | --- | --- | --- | --- |
| Cc1cc(Nc2ccc(NC(=O)c3ccc(Nc4ccnc5ccccc45)cc3)cc2)nc(N)n1 | 603 nM | 1060 nM | 254 nM | 618 nM | 196 nM | 339 nM | 418 nM | 1260 nM | 1670 nM | 3150 nM | 1850 nM | 3740 nM | 732 nM | 1820 nM | 1240 nM | 2510 nM | 2400 nM | 4700 nM | 172 nM | 313 nM | GI50 (T-47D breast): 192 nM; TGI (T-47D breast): 334 nM; GI50 (U251 glioblastoma): 195 nM; TGI (U251 glioblastoma): 340 nM; GI50 (UO-31 renal): 33800 nM; TGI (UO-31 renal): > 100000 nM |
| CNCc1ccccc1-c1csc([C@@H](C)Nc2nc(C)nc3cc(OC)c(OC)cc23)c1 | 1080 nM | 2270 nM | 1290 nM | 2570 nM | 287 nM | 1560 nM | 1210 nM | 2480 nM | 1580 nM | 2930 nM | 1510 nM | 2860 nM | 1610 nM | 2960 nM | 1450 nM | 2770 nM | 1300 nM | 2570 nM | 676 nM | 1940 nM | GI50 (T-47D breast): 1130 nM; TGI (T-47D breast): 2340 nM; GI50 (U251 glioblastoma): 1440 nM; TGI (U251 glioblastoma): 2750 nM; GI50 (UO-31 renal): 1520 nM; TGI (UO-31 renal): 2850 nM |
